Reference: patent publication US20090248141A1, “Shape Memory Polymer Medical Devices” (THE REGENTS OF THE UNIVERSITY OF COLORADO, priority 2006, published 2009)

Assay: Cytotoxicity tests of photoinitiator in polymer system
Assay type: cell-based
Conditions: photoinitiator at about 0.01-1 wt % of the polymer system
Description: A UV-Lamp (Model B100AP; Black-Ray) was used to photopolymerize the solutions for 10 minutes at an intensity of 10 mW/cm^2. The mould is slowly but constantly rotated during photopolymerization. After processing of all materials, polymers were heat treated at 90° C. for 1 hour to ensure the complete conversion of monomers. The photoinitiator 2,2-dimethoxy-2-phenylacetephenone was used although a variety of other initiators can also be used. […] Glass transition temperature (Tg) and rubbery modulus can be controlled by, for example, changing the weight percent (wt %) of the crosslinker, for example, PEGDMA (Mn 550) as shown in FIG. 9.

Structure (SMILES): COC(OC)(C(=O)c1ccccc1)c1ccccc1 [2,2-dimethoxy-2-phenylacetephenone]
- biocompatibility of the polymer (cytotoxicity tests): should not affect the biocompatibility of the polymer
